Holding throughout (experiment): NCI anticancer screen, dose series, 48 h
Experiment [1] deals with HCC-2998 colon.
Experiment [2] relates to HT29 colon.
The test system of experiment [3] is MALME-3M melanoma.
Experiment [4] has as its system MDA-MB-231 breast.
The subject of experiment [5] is NCI-H226 lung.
Experiment [6] concerns NCI-H23 lung.
Experiment [7] relates to OVCAR-4 ovarian.
Experiment [8] concerns OVCAR-5 ovarian.
The subject of experiment [9] is SK-MEL-2 melanoma.
Experiment [10] has as its system SK-MEL-5 melanoma.

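Grown in 96-well plates, cells were treated for 48 hours with each compound at five concentrations. Insufficient inhibition: endpoint recorded as highest concentration tested. GI50 = concentration required for 50% inhibition of growth. The concentration for full growth arrest is given as TGI.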

As for `O=C1Nc2ccccc2C1(c1ccc(O)c(F)c1)c1ccc(O)c(F)c1`, the GI50 is 4.72 µM in experiment [1]; 22.7 µM in experiment [2]; 13.7 µM in experiment [3]; 13.4 µM in experiment [4]; 11 µM in experiment [5]; 0.532 µM in experiment [6]. Also, the GI50 in experiment [7] is 0.237 µM; in experiment [8], 16.4 µM; in [9] it was 11.4 µM; in experiment [10], 14.7 µM. Besides, the TGI in experiment [1] was determined as 25.3 µM; in experiment [2] it was 48.5 µM; in experiment [3], 46.6 µM; in experiment [4], 35.5 µM; in experiment [5], 39.7 µM; in experiment [6] it was 25.2 µM. The TGI in experiment [7] was 0.659 µM; in [8] it was 44.1 µM; in experiment [9] it was 31.5 µM; in experiment [10] it was 29.9 µM.

In the case of `CSC(=S)N/N=C/c1ccccc1`, the TGI in experiment [1], in experiment [2], in [3], in experiment [4], in experiment [5] and in experiment [6] was more than 100 µM throughout. Further, the TGI in experiment [7] was 98.5 µM; in experiment [8] it was more than 100 µM; in [9] it was more than 100 µM; in experiment [10], more than 100 µM.

For the compound `COc1cc(-c2cc(/C=C/C(=O)c3ccc4c(c3)OCO4)[nH]n2)cc(OC)c1OC`, the GI50 is 1.95 µM in [1]; 2.18 µM in [2]; 4.42 µM in experiment [3]; 3.5 µM in [4]; 3.31 µM in [5]; 20.2 µM in experiment [6]. For the same compound, the GI50 in experiment [7] is 3.8 µM; in experiment [8] it was 3.37 µM; in experiment [9] it was 10.3 µM; in [10], 4.51 µM. The TGI was 3.54 µM in experiment [1]; 4.55 µM in [2]; 20.8 µM in [3]; more than 100 µM in [4]; more than 100 µM in experiment [5]; more than 100 µM in experiment [6]. For the same compound, the TGI was more than 100 µM in [7], 93.5 µM in experiment [8], 28.9 µM in experiment [9] and more than 100 µM in [10].

Consider `Fc1ccc(CNc2c3ccccc3nc3ccccc23)cc1`, for which the GI50 was 1.95 µM in [1]; 2.27 µM in [2]; 2.18 µM in experiment [3]; 1.9 µM in experiment [4]; 2 µM in [5]; 2.36 µM in experiment [6]. Besides, the GI50 in experiment [7] is 2.05 µM; in [8] it was 2.41 µM; in experiment [9], 2.39 µM; in experiment [10], 1.73 µM. Besides, the TGI in [1] was determined as 4.62 µM; in experiment [2] it was 9.54 µM; in [3], 5.48 µM; in [4] it was 5.58 µM; in [5], 5.44 µM; in [6] it was 8.57 µM. For the same compound, the TGI was determined as 7.34 µM in experiment [7], 9.25 µM in experiment [8], 6.01 µM in [9] and 3.1 µM in [10].

For the compound `O=C(O)c1cc(N/C=C2\C(=O)c3ccccc3OC2O)ccc1O` (stereo not given), the GI50 in experiment [1] is 27.4 µg/mL; in experiment [2], 28.8 µg/mL; in experiment [3] it was 7.59 µg/mL; in experiment [4] it was 24.5 µg/mL; in experiment [5], 37.7 µg/mL; in experiment [6] it was 20.4 µg/mL. Besides, the GI50 in experiment [7] was 29 µg/mL; in experiment [8], 29.3 µg/mL; in experiment [9], 30.6 µg/mL; in [10], 18 µg/mL. Further, the TGI amounted to 50.2 µg/mL in experiment [1]; 71.6 µg/mL in [2]; 40.8 µg/mL in experiment [3]; 78.9 µg/mL in experiment [4]; 98.1 µg/mL in experiment [5]; 59.6 µg/mL in experiment [6]. Moreover, the TGI in [7] was more than 150 µg/mL; in experiment [8], 74.9 µg/mL; in experiment [9], 68.7 µg/mL; in experiment [10], 39.3 µg/mL.

Take `C=C1C(=O)O[C@H]2[C@H]1CC/C(C=Nc1ccc(C(F)(F)F)cc1N)=C\CC[C@@]1(C)O[C@@H]21`: the GI50 is 16 µM in experiment [1]; 3.65 µM in experiment [2]; 11.1 µM in experiment [3]; 7.05 µM in experiment [4]; 10 µM in [5]; 10.7 µM in experiment [6]. Also, the GI50 in [7] is 4.44 µM; in experiment [8], 13.2 µM; in experiment [9], 11.9 µM; in [10] it was 13.5 µM. For the same compound, the TGI worked out at 34.9 µM in [1]; 8.6 µM in experiment [2]; 26.2 µM in [3]; 24.3 µM in experiment [4]; 32.2 µM in experiment [5]; 25.7 µM in experiment [6]. For the same compound, the TGI in [7] is 20.6 µM; in experiment [8], 31.7 µM; in experiment [9], 26.5 µM; in [10], 26.7 µM.

Take `CN(CCCCCl)P(=O)(OCc1ccc([N+](=O)[O-])o1)C(F)(F)c1ccc(CC(=O)N[C@@H](CC(=O)O)C(=O)N[C@@H](Cc2ccc(C(F)(F)P(=O)(OCc3ccc([N+](=O)[O-])o3)N(C)CCCCCl)cc2)C(N)=O)cc1` (stereo not given in full): the GI50 in [1] is 24.5 µM; in experiment [2] it was 60.4 µM; in experiment [3] it was more than 100 µM; in experiment [4] it was 39.6 µM; in experiment [5], more than 100 µM; in experiment [6], 51.7 µM. Also, the GI50 in [7] was 39.1 µM; in [8], more than 100 µM; in experiment [9], 21.6 µM; in experiment [10], 43.8 µM. Further, the TGI in [1] was 56.7 µM; in experiment [2] it was more than 100 µM; in [3], more than 100 µM; in [4], more than 100 µM; in experiment [5], more than 100 µM; in [6], more than 100 µM. For the same compound, the TGI in experiment [7] was more than 100 µM; in experiment [8], more than 100 µM; in experiment [9] it was 57.4 µM; in experiment [10], more than 100 µM.

Regarding `O=C(Nc1ccc(Cl)c(Cl)c1)C(=O)C(C1OC(=O)c2ccccc21)[N+](=O)[O-]` (stereo not given), the TGI in [1], in [2], in experiment [3], in experiment [4], in experiment [5] and in experiment [6] was more than 100 µM throughout. Further, the TGI in experiment [7], in [8], in experiment [9] and in [10] was more than 100 µM each time.

For the origin of these results see PubChem BioAssay (NCI).
